The values that follow are results of earlier work, collected in article PMC4408927 (Nature, 2015).

Experiment in data set [1]: not given
This is another data set of the same source.

With `CC(C)(C)c1ccccc1Oc1ncccc1NC(=O)Nc1ccc(OC(F)(F)F)cc1` [BPTU, 1-(2-(2-(tert-butyl)phenoxy)pyridin-3-yl)-3-(4-(trifluoromethoxy)phenyl)urea], the Effect on bleeding entry is reported as “minimal effect”. Further, the Platelet aggregation entry with platelet aggregation is reported as “substantially reduces”.

As for `CNc1nc(I)nc2c1ncn2[C@H]1C[C@H](OP(=O)(O)O)[C@]2(COP(=O)(O)O)C[C@H]12` [MRS2500, (1′R,2′S,4′S,5′S)-4-(2-Iodo-6-methylaminopurin-9-yl)-1-[(phosphato)methyl]-2(phosphato)bicycle[3.1.0]-hexane], the Bleeding time result is given as “moderate prolongation”. Also, in the data set on platelet aggregation, the ADP-induced platelet aggregation entry is given as “completely blocks”. For the same molecule, the Arterial thrombosis entry in data set [1] is listed as “effectively reduces”.
